Source: US20120122787A1, “METHODS FOR TREATING POLYCYSTIC KIDNEY DISEASE (PKD) OR OTHER CYST FORMING DISEASES” (priority 2009, published 2012)

How the values were obtained:
[1] = tested on: PCK rat (a recessive PKD model); settings: Wang et al., 2008; cited from earlier work
[2] = tested on: HDAC5 phosphorylation (Ser489); assay: HDAC5 phosphorylation immunoblot in MEK cells without or with fluid flow; type: cell-based, mouse; settings: for fluid flow-induced HDAC5 phosphorylation: fluid flow 0.2 ml/min, GÖ6983 10 μM, GdCl3 20 μM; for HDAC5 phosphorylation in the absence of fluid flow: no fluid flow, PMA 100 nM, ionomycin 1 μM, phospho-specific antibody
Experimental: (§1) Confluent mouse embryonic kidney (MEK) cells were cultured for 1-2 additional days in the absence of interferon-γ to induce optimal differentiation (Nauli et al., 2003). Hanks' Balanced Salt Solution with 20.0 mM HEPES buffer (pH 7.4) and 1% bovine serum albumin was used for calcium imaging and cell culture media for the other experiments. Fluid flow was applied at 0.2 ml/min using a peristaltic pump in 35 mm dishes or 6-well plates, with tubings connected through two 18 Gauge needles at opposing sides of a well (FIG. 9A). Time-lapse imaging was performed on an Axiovert 200M inverted microscope (Karl Zeiss Microlmaging Inc., Thornwood, N.Y.) equipped with a 20×/0.8 NA Plan-Apochromat objective, a Pecon XL-3 environmental chamber (PeCon GmbH, Erbach, Germany) and an AxioCam HSm r1.1 digital monochrome camera (Karl Zeiss). In drug treatments, […] (Sigma-Aldrich, St. Louis, Mo.) was used at 100 nM, GÖ6983 (Sigma-Aldrich) at 10 μM, ionomycin (Sigma-Aldrich) at 1 μM, and GdCl3 (Sigma-Aldrich) at 20 μM.
Whether fluid flow across monolayers of MEK cells led to endogenous HDAC5 phosphorylation was determined using a phospho-specific antibody against HDAC5 Ser489 site (equivalent of Ser498 of human HDAC5) (Bossuyt et al., 2008). While HDAC5 phosphorylation level was low prior to fluid flow onset, an increase in phosphorylation was observed 30 minutes after the start of fluid flow and maintained for several hours thereafter (FIGS. 1A and 1B). The increase in HDAC5 phosphorylation was accompanied by an increase in the level of total HDAC5 (FIGS. 12A, C), consistent with the flow-induced gene expression of HDAC5 observed in the microarray analysis (Table 2). […] By contrast, HDAC5 phosphorylation was induced by the calcium ionophore, ionomycin, in the absence of fluid flow (FIG. 1D, see also FIG. 20 for the quantification of HDAC5 phosphorylation levels under various conditions). Treatment with PMA, an activator of protein kinase C(PKC), stimulated HDAC5 phosphorylation in the absence of fluid flow, while the PKC inhibitor GÖ6983 inhibited flow-induced HDAC5 phosphorylation (FIGS. 1D and 20).

HDAC5 nuclear export = assay: HDAC5-GFP nuclear export in transfected MEK cells; type: cell-based, mouse; settings: for fluid flow-induced HDAC5 nuclear export: GÖ6983 10 μM, GdCl3
Experimental: as §1
To determine whether HDAC5 was exported from the nucleus in response to fluid flow, FLAG-MEF2C and HDAC5-GFP constructs were co-transfected into Pkd1^+/+ and Pkd1^−/− MEK cells, and both tagged proteins correctly localized to the nucleus. Stimulation of MEK cells with fluid flow for 30 min led to translocation of HDAC5-GFP, but not FLAG-MEF2C, from the nucleus in Pkd1^+/+. MEK cells, but not in Pkd1^−/− MEK cells (FIG. 2A). […] By contrast, a HDAC5-GFP mutant lacking the 14-3-3 phosphorylation sites (HDAC5^S250/489A) was not exported (FIG. 2C), consistent with a requirement for phosphorylation of these regulatory sites in fluid flow-induced nuclear export of HDAC5. HDAC5 nuclear export also failed in Pkd1^−/− MEK cells, cells treated with GdCl3 (FIG. 2C), or the PKC inhibitor GÖ6983, while treatment with PMA stimulated HDAC5 nuclear exit even without fluid flow (FIG. 2D).

PKD^ws25/− mice = assay: SAHA treatment of PKDws25/− mice (mouse model of PKD); settings: 4 weeks
Experimental: PKD^ws25/− mice (Wu et al., 1998) were obtained from Albert Einstein College of Medicine (Bronx, N.Y.). PKD^ws25/− mice escape the embryonic lethality of the PKD^−/− phenotype, but recapitulate the human ADPKD phenotype in that they develop cysts early in life (Wu et al., 1998). Eight week old PKD^ws25/− mice (n=15 per group) were treated with 100 mg/kg vorinostat (SAHA) or vehicle (Veh). Animals were dosed daily by i.p. for 5 days followed by 2 days off, for a total of 4 weeks. […] At the end of study, animals were sacrificed and blood taken for analysis of blood urea nitrogen (BUN) levels using the manufacturer's protocol for Hitachi Urea Nitrogen (BUN) Reagent Set (Pointe Scientific, Inc., Canton, Mich.).

Pkd2−/− embryos = assay: TSA injection of pregnant Pkd2+/- mice, histology of E18.5 embryonic kidneys; type: in vivo, mouse
Experimental: (§2) Pkd2^+/− mice were originally provided by S. Somlo (Yale University, New Haven, Conn.) and Hdac5^−/− mice by E. Olson (University of Texas Southwestern Medical Center, Dallas, Tex.). To obtain embryos of various genotypes, the mutant mice were paired and the pregnant females were sacrificed on 18.5 DPC to collect embryonic kidneys. For TSA treatment experiments pregnant Pkd2^+/− females paired with Pkd2^+/− males were subcutaneously injected daily, from 10.5 dpc to 18.5 dpc with 0.5 μg TSA (Biomol, Enzo Life Sciences Inc., Farmingdale, N.Y.) per gram mouse body weight or DMSO (solvent of TSA) in phosphate buffered saline (PBS). At the end of this treatment, females were sacrificed and embryonic kidneys were collected.
(§3) To test further the possibility that reducing the activity of HDAC5 could suppress cyst formation in Pkd2^−/− embryos, trichostatin A (TSA), a chemical inhibitor against type I and II HDACs (Drummond et al., 2005), was injected into pregnant Pkd2+/− female mice from 10.5 dpc after mating with Pkd2+/− males, and embryonic kidneys were analyzed at 18.5 dpc.

MEF2C = assay: Immunoblot of MEF2C in Pkd2−/− embryonic kidneys from TSA-treated mothers; type: in vivo, mouse; settings: TSA-treated vs DMSO-treated mothers
Experimental: as §2, §3

MIM = assay: Immunoblot of MIM in Pkd2−/− embryonic kidneys from TSA-treated mothers; type: in vivo, mouse; settings: TSA-treated vs DMSO-treated mothers
Experimental: as §2, §3

1-deamino-8-D-arginine vasopressin [dDAVP]
effect on cystic disease [1]: aggravated cystic disease

[Cl][Gd]([Cl])[Cl] [GdCl3]
fluid flow-induced HDAC5 phosphorylation [2]: blocked
fluid flow-induced HDAC5 nuclear export (HDAC5 nuclear export): failed

COc1ccc2c(c1)c(C1=C(c3c[nH]c4ccccc34)C(=O)NC1=O)cn2CCCN(C)C [GÖ6983]
fluid flow-induced HDAC5 phosphorylation [2]: inhibited
fluid flow-induced HDAC5 nuclear export (HDAC5 nuclear export): failed

CCCCCCCCCCCCCC(=O)O[C@@H]1[C@@H](C)[C@@]2(O)[C@@H](C=C(CO)C[C@]3(O)C(=O)C(C)=C[C@@H]23)[C@@H]2C(C)(C)[C@]12OC(C)=O [PMA, 12-myristate 13-acetate]
HDAC5 phosphorylation in the absence of fluid flow [2]: stimulated
HDAC5 nuclear exit without fluid flow (HDAC5 nuclear export; no fluid flow, 100 nM PMA): stimulated

O=C(CCCCCCC(=O)Nc1ccccc1)NO [SAHA, suberoylanilide hydroxamic acid]
blood urea nitrogen (BUN) levels (PKD^ws25/− mice; 100 mg/kg i.p. daily 5 days on, 2 days off, compared to vehicle): significantly lower
animals lost (PKD^ws25/− mice; 100 mg/kg i.p., n=15 per group): one
renal tubular epithelial morphology (PKD^ws25/− mice; 100 mg/kg i.p., kidney images vs control): well organized, nearly normal epithelial morphology

CC(/C=C/C(=O)NO)=C\[C@@H](C)C(=O)c1ccc(N(C)C)cc1 [TSA, trichostatin A]
kidney cyst formation in Pkd2−/− embryos (Pkd2−/− embryos; 0.5 μg TSA per gram body weight s.c. daily to mothers 10.5-18.5 dpc, compared to DMSO-injected mothers): drastically reduced
morphology of renal tubules in Pkd2+/+ embryonic kidneys (Pkd2−/− embryos; Pkd2+/+ embryos from TSA-injected mothers): did not affect
morphology of cyst lining cells in Pkd2−/− kidneys (Pkd2−/− embryos; TSA-treated mothers, as opposed to flat morphology of Pkd2−/− cyst lining cells): more normal cuboidal morphology
enhancement of expression of MEF2C (MEF2C): 4 fold
expression of MIM (MIM): drastically increased

C[C@H](CCC(=O)O)C[C@H](C)C[C@H](C)C(=O)/C=C(\O)[C@H](C)C[C@H](C)C/C=C/[C@@H](C)[C@@H](O)[C@@H](C)[C@@H](O)C[C@@H]1CC[C@@](C)([C@H]2CC[C@@](C)([C@@H](C)O)O2)O1 [ionomycin]
HDAC5 phosphorylation in the absence of fluid flow [2]: induced
